From US20230062119A1, “USE OF BIOMARKERS IN IDENTIFYING PATIENTS THAT WILL BE RESPONSIVE TO TREATMENT WITH A PRMT5 INHIBITOR” (Merck Sharp & Dohme LLC, priority 2019, published 2023)
Counter-ions that a name gives are not always drawn. Like-named read-outs stand apart in the source and are kept apart here.

Experiments:
[1] = molecular target: T1, Full-length (FL)-PRMT5-MEP50 enzyme complex (Homo sapiens, UniProt O14744); assay: PRMT5-MEP50 Enzyme Methylation Assay; type: biochemical; details: 1.0 nM PRMT5-MEP50, 75 nM biotinylated peptide, 15 μM SAM
T1 construct: Full-length (FL)-PRMT5-MEP50 enzyme complex (recombinant proteins from baculovirus-transfected Sf21 cells: FL-PRMT5; MW=73837 kDa and FL-MEP50; MW=38614); made in house; host or cells: baculovirus-transfected Sf21 insect cells
Method in brief: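 Compound was pre-incubated 60 min at 37°C with 1.0 nM enzyme and 15 μM SAM (final) in 50 mM Bicine pH 8.0, then 75 nM biotinylated H4R3(Me1) peptide was added and reacted 150 min; twenty-point 1:2 titration from 100000 nM, 1% DMSO. Formic acid quench; SAMDI mass spectrometry measured Me1-to-Me2 conversion, EC50 by 4- or 7-parameter regression.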

[2] = system: symmetric dimethylation of arginine (SDMA) of PRMT5 substrates in MCF-7 cells; assay: PRMT5 Cell Target Engagement (TE) Assay; type: cell-based; details: Homo sapiens, MCF7, 72 h, treated for 3 days, nuclear SDMA by high content imaging, top concentration 10000 nM
Text: The PRMT5 TE assay is a biomarker assay for identifying compounds that inhibit symmetric dimethylation of arginine (SDMA) of PRMT5 substrates. The following substrates have been reported for PRMT5: Histone H2A and H4 R3, Histone H3 R2, Histone H3 R8, spliceosome Sm proteins, ribosomal protein RPS10, p53, FEN1, nucleoplasmin, nucleolin, EGFR and EBNA. The assay will focus on detecting symmetrically dimethylated nuclear proteins using high content imaging technology. Detection of the expression of symmetrically dimethylated nuclear proteins is through a mixture of primary rabbit monoclonal antibodies to SDMA (CST 13222), which in turn recognized by an Alexafluor 488 dye-conjugated anti-rabbit IgG secondary antibody. The IN Cell Analyzer 2200 or Opera-Phenix measures nuclear Alexafluor 488 fluorescent dye intensity that is directly related to the level of expression of symmetrically dimethylated nuclear proteins at the single cell level. Nuclear AF488 dye intensities are compared to the mean value for DMSO treated cells (MIN) to report percent of inhibition for each compound-treated well.
In this assay, the cell potency (EC50) of each compound was determined from a ten point (1:3 serial dilution; top compound concentration of 10000 nM) titration curve using the following outlined procedure. Each well of a BD falcon collagen coated black/clear bottom 384-well plate was seeded with 4000 MCF-7 cells in 30 μl media and allowed to attach for 5 hours. Media is ATCC-formulated Eagle's Minimum Essential Medium, Catalog No. 30-2003. The following components were added to the base medium: 0.01 mg/mL human recombinant insulin; fetal bovine serum to a final concentration of 10%. Additional 30 µl of media containing 2× compounds were added to each well. Cells were treated for 3 days in 37° C. CO2 incubator. On day 3, cells were fixed with Cytofix, permeabilized with 0.4% Triton-X-100/Cytofix, and washed with D-PBS without Ca/Mg. Cells were blocked with Licor Odessey blocking reagent for 1 hour at room temperature, followed by incubation with anti-SDMA (1:1000) antibody at 4° C. overnight. 1° antibody was removed, followed by three washings with DPBS without Ca/Mg and 0.05% Tween20. Hoechst (5 μg/mL), Cell Mask deep stain (1:2000) and Alexa488-conjugated goat anti-rabbit IgG (2 μg/mL) was added for 1 hour at room temperature. A final washing step (three washes) was performed before sealing plate for imaging on In Cell Analyzer 2200 or Opera-Phenix. Images from analyzer were uploaded to Columbus for image analysis. IC50 values were determined by 4 parameters robust fit of percent fluorescence units vs. (Log 10) compound concentrations.

[3] = one EC50: 4 parameters single site sigmoidal model, EC50 1: first value of 7 parameters biphasic model, read-out: Enzyme Methylation Assay (EC50 or EC50 1)
[4] = second EC50 of 7 parameters biphasic model, read-out: Enzyme Methylation Assay (EC50 2)

T1 sequence (O14744 whole entry): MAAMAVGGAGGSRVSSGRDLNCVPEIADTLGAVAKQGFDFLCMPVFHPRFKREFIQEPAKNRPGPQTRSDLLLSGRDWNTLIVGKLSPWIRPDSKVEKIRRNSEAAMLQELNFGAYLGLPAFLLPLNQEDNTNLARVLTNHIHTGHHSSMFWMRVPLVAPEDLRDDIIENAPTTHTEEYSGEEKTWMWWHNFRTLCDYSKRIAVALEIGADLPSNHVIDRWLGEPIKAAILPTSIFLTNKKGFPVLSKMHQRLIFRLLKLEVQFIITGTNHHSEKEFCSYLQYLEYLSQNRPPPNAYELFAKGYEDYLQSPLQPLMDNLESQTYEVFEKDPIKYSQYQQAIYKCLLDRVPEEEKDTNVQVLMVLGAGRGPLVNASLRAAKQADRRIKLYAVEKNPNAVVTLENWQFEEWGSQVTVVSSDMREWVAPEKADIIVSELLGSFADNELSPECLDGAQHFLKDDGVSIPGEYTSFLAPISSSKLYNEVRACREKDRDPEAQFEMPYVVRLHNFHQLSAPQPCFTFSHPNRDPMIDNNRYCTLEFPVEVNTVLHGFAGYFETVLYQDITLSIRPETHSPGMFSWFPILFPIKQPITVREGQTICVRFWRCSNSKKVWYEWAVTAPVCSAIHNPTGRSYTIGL
T1 sequence (Q9BQA1 whole entry partner): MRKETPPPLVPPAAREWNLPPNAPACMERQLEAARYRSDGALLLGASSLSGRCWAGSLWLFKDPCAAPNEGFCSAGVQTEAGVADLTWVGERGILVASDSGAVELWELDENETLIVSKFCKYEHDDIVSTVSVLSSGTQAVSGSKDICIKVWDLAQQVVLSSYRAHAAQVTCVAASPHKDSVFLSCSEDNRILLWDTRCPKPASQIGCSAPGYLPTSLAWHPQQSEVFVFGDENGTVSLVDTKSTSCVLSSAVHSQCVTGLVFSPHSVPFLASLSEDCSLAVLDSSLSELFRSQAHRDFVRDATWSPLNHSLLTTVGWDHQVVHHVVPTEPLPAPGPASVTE

Structure (SMILES)	EC50 [1, 3] [nM]	EC50 [2] [nM]	EC50 [1, 4] [nM]
Nc1nc2cc(C[C@@H]3CC[C@@]4(O)[C@@H]3O[C@@H](n3cc(C5CC5)c5c(N)ncnc53)[C@@H]4O)ccc2cc1F [Example 50, (2R,3R,3aS,6S,6aR)-2-(4-amino-5-cyclopropyl-7H-pyrrolo[2,3-d]pyrimidin-7-yl)-6-[(2-amino-3-fluoroquinolin-7-yl)methyl]hexahydro-3aH-cyclopenta[b]furan-3,3a-diol]	0.3	0.7	
Cc1cn([C@@H]2O[C@@H]3[C@@H](Oc4ccc5cc(Cl)c(N)nc5c4)CC[C@]3(O)[C@H]2O)c2ncnc(N)c12 [Example 64, (2R,3R,3aS,6S,6aR)-6-((2-amino-3-chloroquinolin-7-yl)oxy)-2-(4-amino-5-methyl-7H-pyrrolo[2,3-d]pyrimidin-7-yl)hexahydro-3aH-cyclopenta[b]furan-3,3a-diol 2,2,2-trifluoroacetate]	0.3	16.2	
Cc1cn([C@@H]2O[C@@H]3[C@@H](Oc4ccc5cc(F)c(N)nc5c4)CC[C@]3(O)[C@H]2O)c2ncnc(N)c12 [Example 65, (2R,3R,3aS,6S,6aR)-6-((2-amino-3-fluoroquinolin-7-yl)oxy)-2-(4-amino-5-methyl-7H-pyrrolo[2,3-d]pyrimidin-7-yl)hexahydro-3aH-cyclopenta[b]furan-3,3a-diol 2,2,2-trifluoroacetate]	0.2	179	200
CCc1cn([C@@H]2O[C@@H]3[C@@H](Oc4ccc5cc(Br)c(N)nc5c4)CC[C@]3(O)[C@H]2O)c2ncnc(N)c12 [Example 69, (2R,3R,3aS,6S,6aR)-6-((2-amino-3-bromoquinolin-7-yl)oxy)-2-(4-amino-5-ethyl-7H-pyrrolo[2,3-d]pyrimidin-7-yl)hexahydro-3aH-cyclopenta[b]furan-3,3a-diol]	1.1	103	
Nc1nc2cc(O[C@H]3CC[C@@]4(O)[C@@H]3O[C@@H](n3ccc5c(C(F)F)ncnc53)[C@@H]4O)ccc2cc1Br [Example 79, (2R,3R,3aS,6S,6aR)-6-((2-amino-3-bromoquinolin-7-yl)oxy)-2-(4-(difluoromethyl)-7H-pyrrolo[2,3-d]pyrimidin-7-yl)hexahydro-3aH-cyclopenta[b]furan-3,3a-diol]	2.9	52.5	
CCc1ncnc2c1ccn2[C@@H]1O[C@@H]2[C@@H](Oc3ccc4cc(Br)c(N)nc4c3)CC[C@]2(O)[C@H]1O [Example 82, 2,2,2-trifluoroacetate]	0.7	87.2	75.9
Nc1nc2cc(CC[C@]3(CF)C[C@@H](n4ccc5c(N)ncnc54)[C@H](O)[C@@H]3O)ccc2cc1Br [Example 102, (1S,2R,5R)-3-(2-(2-amino-3-bromoquinolin-7-yl)ethyl)-5-(4-amino-7H-pyrrolo[2,3-d]pyrimidin-7-yl)-3-(fluoromethyl)cyclopentane-1,2-diol]	0.3	2	
Nc1ncc2ccn([C@@H]3O[C@@H]4[C@@H](Oc5ccc6cc(Br)c(N)nc6c5)CC[C@]4(O)[C@H]3O)c2n1 [compound 46, (2R,3R,3aS,6S,6aR)-6-((2-amino-3-bromoquinolin-7-yl)oxy)-2-(2-amino-7H-pyrrolo[2,3-d]pyrimidin-7-yl)hexahydro-3aH-cyclopenta[b]furan-3,3a-diol dihydrochloride]	0.5	16.8	
